Results published in paper PMC9460261, “Need for a Standardized Translational Drug Development Platform: Lessons Learned from the Repurposing of Drugs for COVID-19” (Microorganisms, 2022).
Structures can show the parent of a compound that is named as a salt. Where two headings read alike, the source gives them in different places.

Tests used:
[1] = system: SARS-CoV-2 in human airway epithelial cells at air-liquid interface; format: cell-based, SARS-CoV-2_B.1.1.7
[2] = system: SARS-CoV-2 in Mucilair human airway epithelia; format: cell-based, SARS-CoV-2 BavPat1/2020
[3] = system: SARS-CoV-2 in human airway epithelial cells at air-liquid interface; parameters: method as in earlier work; conditions: 4 dpi, cited from earlier work

For Nc1c(Br)cc(Br)cc1CN[C@H]1CC[C@H](O)CC1 [Ambroxol, ambroxol], the “Log Viral Load Reduction (Compared to Virus Control and Background), HAEC/ALI (alpha variant)” value [1] was “–1.0 (+-0.71) log”.
With CCN(CC)Cc1cc(Nc2ccnc3cc(Cl)ccc23)ccc1O [Amodiaquine, amodiaquine] the “Log Viral titer Reduction (Compared to Virus Control), HAEC/ALI (BavPat variant)” value ([2]; 10 uM, […]) was -0.51 (+-1.60) log.
In the case of COC(=O)N[C@H](C(=O)N[C@@H](Cc1ccccc1)[C@@H](O)CN(Cc1ccc(-c2ccccn2)cc1)NC(=O)[C@@H](NC(=O)OC)C(C)(C)C)C(C)(C)C [Atazanavir, atazanavir], the “Log Viral titer Reduction (Compared to Virus Control), HAEC/ALI (BavPat variant)” value ([2]; 10 uM, […]) is reported as 0.09 (+-0.64) log.
For CN(C)C(=O)COC(=O)Cc1ccc(OC(=O)c2ccc(NC(=N)N)cc2)cc1 [Camostat mesylate, camostat mesylate], the “Activity, HAEC/ALI (alpha variant)” value [1] was “YES” and the “Log Viral Load Reduction (Compared to Virus Control and Background), HAEC/ALI (alpha variant)” value [1] was over 1.7 log.
For COc1ccc2cc1Oc1ccc(cc1)C[C@H]1c3c(cc4c(c3Oc3cc5c(cc3OC)CCN(C)[C@@H]5C2)OCO4)CCN1C [Cepharanthine, cepharanthine], the “Log Viral Load Reduction (Compared to Virus Control and Background), HAEC/ALI (alpha variant)” value [1] was 0.92 (+-0.97) log.
In the case of COc1cc2c(c(OC)c1OC)-c1ccc(OC)c(=O)cc1[C@@H](NC(C)=O)CC2 [Colchicine, colchicine], the “Log Viral Load Reduction (Compared to Virus Control and Background), HAEC/ALI (alpha variant)” value [1] is reported as -0.2 (+-0.44) log.
With COC(=O)N[C@H](C(=O)N1CCC[C@H]1c1nc(-c2ccc(-c3ccc(-c4c[nH]c([C@@H]5CCCN5C(=O)[C@@H](NC(=O)OC)C(C)C)n4)cc3)cc2)c[nH]1)C(C)C [Daclatasvir, daclatasvir] the “Log Viral Load Reduction (Compared to Virus Control and Background), HAEC/ALI (alpha variant)” value ([1]; 10 uM, […]) was 0.17 (+-0.84) log.
In the case of O=c1nc(NO)ccn1[C@@H]1O[C@H](CO)[C@@H](O)[C@H]1O [EIDD-1931], the “Log Viral Load Reduction (Compared to Virus Control and Background), HAEC/ALI (alpha variant)” value [1] is reported as “+Inc” and the “Log Viral Load Reduction (Compared to Virus Control and Background), HAEC/ALI (alpha variant)” value ([1]; 10 uM, […]) is reported as “+Inc”.
In the case of NC(=O)c1nc(F)c[nH]c1=O [Favipiravir, favipiravir], the “Log Viral Load Reduction (Compared to Virus Control and Background), HAEC/ALI (alpha variant)” value ([1]; 300 uM, […]) is reported as -0.4 (+/-0.2) log.
With CNCCC(Oc1ccc(C(F)(F)F)cc1)c1ccccc1 (stereo not shown) [Fluoxetine, fluoxetine] the “Log Viral Load Reduction (Compared to Virus Control and Background), HAEC/ALI (alpha variant)” value [1] was -0.12 (+-0.10) and the “Log Viral titer Reduction (Compared to Virus Control), HAEC/ALI (BavPat variant)” value [2] was 0.68 (+-0.11).
With COCCCC/C(=N\OCCN)c1ccc(C(F)(F)F)cc1 [Fluvoxamine maleate, fluvoxamine maleate] the “Log Viral Load Reduction (Compared to Virus Control and Background), HAEC/ALI (alpha variant)” value ([1]; 10 uM, […]) was “+Inc” and the “Log Viral titer Reduction (Compared to Virus Control), HAEC/ALI (BavPat variant)” value ([2]; 10 uM, […]) was 0.2(+-0.1) log.
For OC(c1cc(C(F)(F)F)nc2c(C(F)(F)F)cccc12)C1CCCCN1 (stereo not shown) [Mefloquine, mefloquine], the “Log Viral Load Reduction (Compared to Virus Control and Background), HAEC/ALI (alpha variant)” value ([1]; 10 uM, […]) was 0.45 (+-2.02) log.
In the case of CC(C)C(=O)OC[C@H]1O[C@@H](n2ccc(NO)nc2=O)[C@H](O)[C@@H]1O [Molnupiravir, molnupiravir], the “Log Viral Load Reduction (Compared to Virus Control and Background), HAEC/ALI (alpha variant)” value [1] is reported as 1.9 (+-1.3) log, the “Activity, HAEC/ALI (alpha variant)” value ([1]; 3 uM, […], § variability observed) is reported as “YES” and the “Activity, HAEC/ALI (alpha variant)” value ([1]; 10 uM, […]) is reported as “YES”. The “Log Viral Load Reduction (Compared to Virus Control and Background), HAEC/ALI (alpha variant)” value ([1]; 10 uM, […]) was 5.4 (+-1.5) log, the “Activity, HAEC/ALI (BavPat variant)” value [2] was “YES” and the “Log Viral titer Reduction (Compared to Virus Control), HAEC/ALI (BavPat variant)” value ([2]; 0.3 uM, […]) was -0.39 (+-0.48) log.
For Cc1c(O)cccc1C(=O)N[C@@H](CSc1ccccc1)[C@H](O)CN1C[C@H]2CCCC[C@H]2C[C@H]1C(=O)NC(C)(C)C [Nelfinavir, nelfinavir], the “Activity, HAEC/ALI (alpha variant)” value ([1]; 10 uM, […]) was “YES” and the “Log Viral Load Reduction (Compared to Virus Control and Background), HAEC/ALI (alpha variant)” value ([1]; 10 uM, […]) was 3.2 (+-1.4) log.
In the case of CC(C)(C)[C@H](NC(=O)C(F)(F)F)C(=O)N1C[C@H]2[C@@H]([C@H]1C(=O)N[C@H](C#N)C[C@@H]1CCNC1=O)C2(C)C [Nirmatrelvir, nirmatrelvir], the “Log Viral Load Reduction (Compared to Virus Control and Background), HAEC/ALI (alpha variant)” value ([3]; 0.03 uM) is listed as -0.30 (+-0.41) log, the “Log Viral Load Reduction (Compared to Virus Control and Background), HAEC/ALI (alpha variant)” value ([3]; 0.1 uM) is listed as 1.9 (+-1.6) log and the “Activity, HAEC/ALI (alpha variant)” value ([3]; 0.1 uM, § variability observed) is listed as “YES”. The “Activity, HAEC/ALI (alpha variant)” value ([3]; 1 uM) was “YES” and the “Log Viral Load Reduction (Compared to Virus Control and Background), HAEC/ALI (alpha variant)” value ([3]; 1 uM) was over 3.8 log.
For CC(=O)Oc1ccccc1C(=O)Nc1ncc([N+](=O)[O-])s1 [Nitazoxanide, nitazoxanide], the “Activity, HAEC/ALI (BavPat variant)” value [2] was “Yes” and the “Log Viral titer Reduction (Compared to Virus Control), HAEC/ALI (BavPat variant)” value [2] was -1.59 (+-0.72) log.
For CC(=O)CCCCn1c(=O)c2c(ncn2C)n(C)c1=O [Pentoxyfilline, pentoxyfilline], the “Log Viral titer Reduction (Compared to Virus Control), HAEC/ALI (BavPat variant)” value ([2]; 10 uM, […]) was 0.17(+-0.32) log.
In the case of CCCN(CCC)S(=O)(=O)c1ccc(C(=O)O)cc1 [Probenecid, probenecid], the “Log Viral Load Reduction (Compared to Virus Control and Background), HAEC/ALI (alpha variant)” value ([1]; 10 uM, […]) is reported as 0.34 (+-1.0) log.
In the case of CC1(C)C(=O)N(c2ccc(C#N)c(C(F)(F)F)c2F)C(=S)N1c1ccc(CCCc2ncco2)nc1 [Proxalutamide, proxalutamide], the “Log Viral titer Reduction (Compared to Virus Control), HAEC/ALI (BavPat variant)” value ([2]; 10 uM, […]) is reported as 0.11 (+-0.6) log.
For CC(C)OC(=O)[C@H](C)N[P@](=O)(OC[C@H]1O[C@@H](n2ccc(=O)[nH]c2=O)[C@](C)(F)[C@@H]1O)Oc1ccccc1 [Sofosbuvir, sofosbuvir], the “Log Viral Load Reduction (Compared to Virus Control and Background), HAEC/ALI (alpha variant)” value ([1]; 10 uM, […]) was -0.56 (+-0.10) log.
For bemnifosbuvir, the “Log Viral Load Reduction (Compared to Virus Control and Background), HAEC/ALI (alpha variant)” value [1] was -0.35 (+-1.2) log, the “Log Viral titer Reduction (Compared to Virus Control), HAEC/ALI (BavPat variant)” value ([2]; 0.1 uM, […]) was -0.12 (+-0.4) log and the “Log Viral titer Reduction (Compared to Virus Control), HAEC/ALI (BavPat variant)” value ([2]; 0.3 uM, […]) was -0.38 (+-0.18) log.
With ivermectin the “Activity, HAEC/ALI (alpha variant)” value ([1]; 10 uM, […]) was “Toxic” and the “Log Viral Load Reduction (Compared to Virus Control and Background), HAEC/ALI (alpha variant)” value ([1]; 10 uM, […]) was over 4.09 log.
